Results taken from patent US4642364A, “Unsaturated eicosanoic acids” (Hoffmann-La Roche Inc., priority 1986, dated 1987).

Experiments:
[1] = test system: SRS-A synthesis (Rat Peritoneal Cells); assay: Inhibition of the in vitro synthesis of SRS-A in rat peritoneal cells (ionophore A23187 challenge, guinea pig ileum bioassay); type: cell-based, rat (male Sprague-Dawley); conditions: for inhibition at 10 µM: p values given
Excerpt: To study the effect of drugs on SRS-A synthesis in rat peritoneal cells, these cells (including mast cells, monocytes, eosinophils and neutrophils)were isolated from male Sprague-Dawley rats (Charles River Laboratories) weighing 180-220 g by the lavage procedure described by Herzig, D. J. and Kusner, E. J., Journal of Pharmacology and Experimental Therapeutics, 194, 457-462 (1975) with the exception that Hanks balanced salt solution used in these experiments was adjusted to pH 6.9 with 5% (V/V) of 0.1M aqueous phosphate buffer and contained 50 m/gml sodium heparin. After removal from the peritoneal cavity of rats, the cells were subsequently isolated by centrifugation at 400×gravity for 10 minutes at 4° C. and resuspended to a concentration of about 2,000,000 cells per ml in Hanks buffer.
Samples for evaluation were prepared by adding various concentrations of test drugs to 2 ml aliquots of the resuspended cells in Hanks buffer. The 2 ml samples used for control contained 2 ml aliquots of resuspended cells in Hanks buffer without drugs. All of the above samples (2 ml final volume) were preincubated at 37° C. for 10 minutes in the presence of varying concentrations of test drug prior to challenge with 5×10^-7 M ionophore […]. This ionophore is disclosed in Burka and Flower, Br. J. Pharmacology 65: 35-41 (1979). Antibiotic A23187 was used as a probe for the study of calcium and magnesium function in biological systems. After ionophore challenge, SRS-A was synthesized in the samples by the cells for 10 minutes (at 37° C.) after which this synthesis was terminated by placing the samples in a boiling water bath for 10 minutes followed by centrifugation at 2,000×g (10 minutes) at 4° C. to remove coagulated protein and cellular debris. The SRS-A present in the resulting supernatants was quantitated by a bioassay using a guinea pig ileum as described in Orange, and Austen, Adv. Immunol. 10: 105-144 144 (1969). For this bioassay, a 1.5 cm segment of ileum was removed from animals weighing 300 to 400 g and suspended in an organ bath containing 10 ml of Tyrodes solution with 10^-6 M atropine sulfate and 10^-6 M pyrilamine maleate. The bath was maintained at 37° C. and aerated with a mixture of 95% O2 and 5%CO2. The concentration of SRS-A in the experimental samples was determined by a comparison of the isotonic contraction responses elicited by the samples with those obtained with varying amounts of an SRS-A standard solution prepared from chopped guinea pig lung as disclosed in Hitchcock, M. J. Pharmacol. Exp. Ther. 207: 630-640 (1978) and quantituted by the procedures of Orange, R. R. and Austen, K. F. Adv. Immunol. 10: 105-144 (1969) against histamine (1 unit of SRS-A being that amount which gives a contractile response similar to that of […] of histamine). In the absence of drug, the ionophore A23187-induced SRS-A synthesis varied between 40 to 50 units of SRS-A per 10^6 cells. In the presence of increasing concentrations of test drug, there was a concentration-related decrease in SRS-A synthesis. [formula] at each concentration of the various test drugs was calculated. The concentration of test drug which inhibits the synthesis of SRS-A by 50% (IC50) was determined for each test drug from a plot of the mean percent inhibition versus the log of drug concentration. The difference of units of SRS-A in the test sample used in the fraction given above was obtained by subtracting from the units of SRS-A in the control from the actual measurement of the units of SRS-A in the sample.

[2] = target: T1, Δ^12-lipoxygenase (Human Platelet) (Homo sapiens, UniProt P18054); assay: Δ^12-lipoxygenase assay (conversion of 14C-arachidonic acid to 12-HETE, human platelet enzyme); type: biochemical; conditions: 3-4 μM arachidonic acid
T1 construct: using human platelets as the enzyme source; from tissue; host or cells: human platelets (washed, lysed by freezing and thawing; 100,000×g supernatant, 50% ammonium sulfate precipitate)
T1 sequence (P18054 1-663): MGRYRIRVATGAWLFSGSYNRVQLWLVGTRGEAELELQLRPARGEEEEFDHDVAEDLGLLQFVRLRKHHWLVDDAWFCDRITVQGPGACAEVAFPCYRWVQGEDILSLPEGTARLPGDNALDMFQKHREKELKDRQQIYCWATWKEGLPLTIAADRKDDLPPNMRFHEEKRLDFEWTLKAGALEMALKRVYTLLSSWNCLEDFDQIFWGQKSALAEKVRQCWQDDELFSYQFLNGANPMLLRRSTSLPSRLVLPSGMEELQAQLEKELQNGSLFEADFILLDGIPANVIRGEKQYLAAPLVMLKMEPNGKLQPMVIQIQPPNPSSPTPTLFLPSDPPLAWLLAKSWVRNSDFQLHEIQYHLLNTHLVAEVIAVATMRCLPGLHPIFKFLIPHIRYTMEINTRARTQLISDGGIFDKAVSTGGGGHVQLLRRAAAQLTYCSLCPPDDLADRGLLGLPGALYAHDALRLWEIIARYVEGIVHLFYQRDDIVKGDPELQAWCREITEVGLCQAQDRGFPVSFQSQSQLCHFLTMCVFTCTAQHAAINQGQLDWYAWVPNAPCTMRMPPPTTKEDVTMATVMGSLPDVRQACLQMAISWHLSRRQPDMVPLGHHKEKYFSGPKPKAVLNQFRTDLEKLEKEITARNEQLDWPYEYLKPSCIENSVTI
Method: Δ^12 -lipoxygenase activity was measured by following the conversion of ^14 C-arachidonic acid (AA) to ^14 C-12-hydroxy-5,8,10,14-eicosatetraenoic acid (12-HETE) using human platelets as the enzyme source. Washed human platelets from approximately 2000 ml of blood were suspended in 50 ml of phosphate buffered saline (PBS) and then lysed by freezing and thawing (3 times). The platelet lysate was homogenized using a glass-teflon homogenizer and then particulate material was sedimented by centifugation at 100,000×g for 1 hr and the sediment was discarded. The supernatant was made 50% by weight saturated with respect to (NH4)2 SO4 by adding solid ammonium sulfate. The resultant suspension was allowed to stand at 0° overnight. The precipitate was collected by centrifugation and was dissolved in approximately 25 ml of PBS. This solution was the enzyme solution utilized to catalyze the conversion of AA to 12 HETE.
In order to test the compounds, separate incubation tubes for each of the compounds and for concentrations of these compounds were prepared in an ice bath. These tubes each contained 140 μl of PBS containing 1.78 mM glutathione, 10 μl of test drug in ethanol, 50 μl of platelet supernatant, and 50 μl of ^14 C-AA. […] Incubation tubes were prepared containing only buffer ethanol and ^14 c-AA were included as substrate controls. The final concentration of AA added as its ammonium salt in PBS, in each of the incubation tubes 3-4 μM. Sufficient enzyme solution prepared as above was added so that, under the conditions of the assay, approximately 80-90% by weight of the ^14 C-AA was converted to 12-HETE, as determined by prior controls. The tubes were incubated at 37° for 2 min, the reaction was stopped by the addition, while mixing on a mixer, of 2 ml of diethyl ether and 50 μl of 1M citric acid. The ether in the presence of citric acid extracted 12-HETE and AA from enzyme in the reaction medium in each of the samples. The ether extract was evaporated to dryness under nitrogen and then the residue was dissolved in 50 μl of chloroform:methanol (2:1 parts by volume). The dissolved residue containing 12-HETE and AA was applied, as rapidly as possible, to a glass fiber sheet impregnated with silica gel and then the chromatogram was developed using isooctane:methylethylketone:acetic acid (100:9:1 parts by volume) as solvent. Radioactive products and unconverted ^14 C-AA were located using a thin-layer chromatography scanner. The appropriate regions of the chromatogram were cut out, then the radioactivity quantitated using a liquid scintillation counter. The amount of ^14 C-AA converted to product is used as a measure of Δ^12 -lipoxygenase activity.
The mean percent inhibition was calculated by multiplying 100 times the following fraction: [formula] at each concentration of the various test drugs was calculated.

[3] = target: T2, Prostaglandin endoperoxide synthase (Ovis aries, UniProt P05979); assay: Prostaglandin endoperoxide synthase (PES) assay, oxygen uptake with sheep seminal vesicular gland microsomes; type: biochemical; conditions: 33 μM arachidonic acid, pH 8.5
T2 construct: sheep seminal vesicular gland microsomes (SSVM) as the enzyme source; from tissue; host or cells: sheep seminal vesicular gland microsomes, acetone powder
T2 sequence (P05979 25-600): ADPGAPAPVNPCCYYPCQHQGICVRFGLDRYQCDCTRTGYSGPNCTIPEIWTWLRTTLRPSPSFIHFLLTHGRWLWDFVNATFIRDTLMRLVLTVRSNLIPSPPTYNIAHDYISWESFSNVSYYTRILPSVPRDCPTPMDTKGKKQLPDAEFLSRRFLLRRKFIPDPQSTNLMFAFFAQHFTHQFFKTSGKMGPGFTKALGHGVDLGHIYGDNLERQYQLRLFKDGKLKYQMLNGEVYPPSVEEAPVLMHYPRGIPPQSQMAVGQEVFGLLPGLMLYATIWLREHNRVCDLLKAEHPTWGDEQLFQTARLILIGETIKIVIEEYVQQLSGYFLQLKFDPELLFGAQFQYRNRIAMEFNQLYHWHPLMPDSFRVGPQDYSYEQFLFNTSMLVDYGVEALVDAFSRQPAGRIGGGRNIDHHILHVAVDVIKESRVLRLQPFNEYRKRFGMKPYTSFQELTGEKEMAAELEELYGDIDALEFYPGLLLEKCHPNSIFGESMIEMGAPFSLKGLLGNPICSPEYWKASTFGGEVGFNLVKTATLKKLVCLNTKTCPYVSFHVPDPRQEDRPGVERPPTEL
Method: The activity of PES was measured polarigraphically by following the disappearance of dissolved O2 from incubation mixtures containing arachidonic acid (AA) as substrate and sheep seminal vesicular gland microsomes (SSVM) as the enzyme source. Fifty mg of an acetone powder of SSVM were suspended, using a glass teflon homogenizer, in 1 ml of 0.1M tris. HCl (pH, 8.5) containing 0.67 mM phenol. This suspension of SSVM was incubated at room temperature in the presence of phenol to maximumly activate the PES and then the suspension was kept at 0°. Samples in a separate reaction vessel were each prepared by adding tris-phenol buffer (2.8 ml), 0.05 ml of the SSVM suspension, and a maximum of 0.12 ml of ethanol containing various concentrations of the test drug. […] Reaction vessels were then allowed to reach temperature equilibrium. An oxygen electrode is inserted into the vessel and then 24 μl of 4.1 mM AA are injected into the sealed vessel through a port on the side of the electrode. The final concentration of AA is 33 μM. Oxygen uptake is recorded and the initial rate of oxygen uptake used as a measure of PES activity. Each of the test compounds were tested initially at a high concentration (1 mM) and then, if required, dilutions are made. The mean percent inhibition was obtained for each concentration of the various test drugs by expressing as a percent the number obtained by dividing the difference of the oxygen uptake of the test sample by the oxygen uptake of the control. The concentration of test drug which inhibits the synthesis of PES by 50% (IC50) which is given in the following table was determined for each test drug from a plot of mean percent inhibition verses drug concentration. The difference of the oxygen uptake of test sample was obtained by subtracting from the oxygen uptake of the control, the oxygen uptake of the test sample.

[4] = test system: SRS-A synthesis (Rat Peritoneal Cells); conditions: statement on standard; cited from earlier work
[5] = target: T1, Δ^12-lipoxygenase (Human Platelet); conditions: statement on standard; cited from earlier work
[6] = target: T2, Prostaglandin endoperoxide synthase; conditions: statement on standard; cited from earlier work

Compound	IC50 [1] [µM]	IC50 [2] [µM]	IC50 [3] [µM]	inhibition at 10 µM [1] [%]	inhibition of SRS-A synthesis (in words) [4]	inhibition of Δ^12-lipoxygenase (in words) [5]	inhibition of prostaglandin endoperoxide synthase (in words) [6]
CCCCC/C=C\C/C=C\CC#CCC#CCCCC(=O)O [Compound 3, (Z,Z)-11,14-eicosadien-5,8-diynoic acid]		10 to 100	10 to 100	81 ± 6			
CCCCCC#CCC#CCCCCCCCC(=O)O [9,12-Octadecadiynoic Acid, reference compound]	3	≥ 100	0.1 to 1	87 ± 1	potent standard inhibitor of SRS-A synthesis	not being an inhibitor of Δ^12 lipoxygenase	potent standard inhibitor
CCCCCC#CCC#CCC#CCC#CCCCC(=O)O [5,8,11,14-Eicosatetraynoic Acid, reference compound]	3 to 4		5	100	standard potent inhibitor of SRS-A synthesis	potent inhibitor	potent inhibitor
CCCCC/C=C\C/C=C\CC#CCC#CCCCC(=O)OC [Compound 4, (Z,Z)-11,14-eicosadien-5,8-diynoic acid methyl ester]	< 10	10 to 100		85 ± 8			

Further lines, with some results ahead:

IC50 [1] [µM]	IC50 [2] [µM]	IC50 [3] [µM]	Compound	inhibition at 10 µM [1] [%]	inhibition of SRS-A synthesis (in words) [4]	inhibition of Δ^12-lipoxygenase (in words) [5]	inhibition of prostaglandin endoperoxide synthase (in words) [6]
< 10	> 100		CCCCC/C=C\CCCCC#CCC#CCCC(F)C1=NC(C)(C)CO1 (stereo not drawn) [Compound 8, 2-(1-fluorononadec-13(Z)-en-4,7-diynyl)-4,5-dihydro-4,4-dimethyloxazole]	88 ± 6			
1 to 3	13	> 100	CCCCCCCC/C=C\CC#CCC#CCCCC(=O)O [Compound 5, (Z,Z)-11-eicosen-5,8-diynoic acid]	100			
1 to 3	~100	> 100	CCCCC/C=C\CCCCC#CCC#CCCCC(=O)O [Compound 6, (Z)-14-eicosen-5,8-diynoic acid]	100			
< 10	~100		CCCCC/C=C\CCCCC#CCC#CCCCC1=NC(C)(C)CO1 [Compound 7, 2[(Z)-13-nonadecen-4,7-diynyl]-4,5-dihydro-4,4-dimethyloxazole]	86 ± 8			
